Measured values reported in US8835466B2, “Synthesis and uses of pyroglutamic acid derivatives” (Prodimed, S.A., priority 2006, dated 2014).

Test system: KLN 205 cells (lung cell carcinoma)
Experiment: Effect of 9d and Cisplatin on KLN 205 tumour growth after subcutaneous, intradermal or intramuscular inoculation (Example 12)
Format: in vivo, DBA/2 mice
Description: This was carried out by measuring two perpendicular diameters (d1/d2) with a calliper. These measures were used to obtain both tumour surface and volume: […] Results were expressed as single values and/or as the mean±SD or median from each experimental group. This assay was made in order to check the effect on in vivo tumour growth in mice challenged with KLN 205 cells. Tumours where established by subcutaneous, intradermal or intramuscular inoculation. The effect of the combination of cisplatin and/or Isomer (9d) was compared with placebo in mice challenged intradermally. […] KLN 205 is a lung cell carcinoma originated in DBA/2 mouse strain, and therefore syngeneic in mice with DBA/2 genetic background (Kaneko T and […]. Growth characteristics and drug responses of a murine lung carcinoma in vitro and in vivo. Cancer Research. 38: 2084-2090; 1978). KLN 205 cells (CLS, Eppelheim, Germany) were maintained in vitro by serial passages every 3-4 days. […] Louis, Mo., USA) by seeding 5×10^6 cells onto 75 cm^2 culture flasks. Subcultures were carried out by collecting detached cells after treatment with trypsin-EDTA (Sigma, St. Louis, Mo., USA). Tumour cells, collected from 48 hour cultures, were used as source of KLN 205 cells for the studies described below. […] Tumours were established by subcutaneous and intradermal inoculation in the right hind flank, and intramuscular in the right hind leg. Mice (DBA/2) were inoculated with 0.05 mL containing 2×10^5 viable KLN 205 cells. The day of subcutaneous, intradermal and intramuscular inoculation will be considered Day 0 of the test. A case-control study was performed with treated and control mice in order to determine whether differences between placebo, 9d, Cisplatin or 9d+Cisplatin were present. The data obtained (tumour surface and volume) were tested for Normal distribution within the groups (Kolmogorov Smirnov test p<0.05). […] The U-test of Mann Withney was chosen for being one of the better known non-parametrical tests, anyway, results for this test are equivalent both to those of Wilcoxon's sum of ranges and Kruskal-Wallis two-groups test.

[1] = Groups B2-B4 (9d 250 ng, Cisplatin 65 μg, or both), day 0 after tumour inoculation
[2] = Groups B2-B4 (9d 250 ng, Cisplatin 65 μg, or both), day 10 after tumour inoculation
[3] = Groups B2-B4 (9d 250 ng, Cisplatin 65 μg, or both), day 13 after tumour inoculation
[4] = Groups B2-B4 (9d 250 ng, Cisplatin 65 μg, or both), day 17 after tumour inoculation
[5] = Groups B2-B4 (9d 250 ng, Cisplatin 65 μg, or both), day 20 after tumour inoculation
[6] = Groups B2-B4 (9d 250 ng, Cisplatin 65 μg, or both), day 24 after tumour inoculation
[7] = Groups B2-B4 (9d 250 ng, Cisplatin 65 μg, or both), day 27 after tumour inoculation
[8] = Groups B2-B4 (9d 250 ng, Cisplatin 65 μg, or both), day 31 after tumour inoculation
[9] = Group A2 (9d 250 ng/mouse), day 0 after tumour inoculation
[10] = Group A2 (9d 250 ng/mouse), day 10 after tumour inoculation
[11] = Group A2 (9d 250 ng/mouse), day 13 after tumour inoculation
[12] = Group A2 (9d 250 ng/mouse), day 17 after tumour inoculation
[13] = Group A2 (9d 250 ng/mouse), day 20 after tumour inoculation
[14] = Group A2 (9d 250 ng/mouse), day 24 after tumour inoculation
[15] = Group A2 (9d 250 ng/mouse), day 27 after tumour inoculation
[16] = Group A2 (9d 250 ng/mouse), day 31 after tumour inoculation
[17] = Group C2 (9d 250 ng/mouse), day 0 after tumour inoculation
[18] = Group C2 (9d 250 ng/mouse), day 10 after tumour inoculation
[19] = Group C2 (9d 250 ng/mouse), day 13 after tumour inoculation
[20] = Group C2 (9d 250 ng/mouse), day 17 after tumour inoculation
[21] = Group C2 (9d 250 ng/mouse), day 20 after tumour inoculation
[22] = Group C2 (9d 250 ng/mouse), day 24 after tumour inoculation
[23] = Group C2 (9d 250 ng/mouse), day 27 after tumour inoculation
[24] = Group C2 (9d 250 ng/mouse), day 31 after tumour inoculation
[25] = Group C2 (9d 250 ng/mouse), day 34 after tumour inoculation
[26] = Group C2 (9d 250 ng/mouse), day 38 after tumour inoculation

Structure (SMILES): N.N.[Cl][Pt][Cl] [Cisplatin, reference compound]
- SURFACE Overall values (Mean) [1]: 0 mm^2
- SURFACE Overall values (Median) [1]: 0 mm^2
- VOLUME Overall values (Mean) [1]: 0 mm^3
- VOLUME Overall values (Median) [1]: 0 mm^3
- SURFACE Overall values (Mean) [2]: 7.3 mm^2
- SURFACE Overall values (Median) [2]: 6.5 mm^2
- VOLUME Overall values (Mean) [2]: 11.05 mm^3
- VOLUME Overall values (Median) [2]: 8.75 mm^3
- SURFACE Overall values (Mean) [3]: 20 mm^2
- SURFACE Overall values (Median) [3]: 20 mm^2
- VOLUME Overall values (Mean) [3]: 43.6 mm^3
- VOLUME Overall values (Median) [3]: 40 mm^3
- SURFACE Overall values (Mean) [4]: 38.3 mm^2
- SURFACE Overall values (Median) [4]: 33 mm^2
- VOLUME Overall values (Mean) [4]: 115.95 mm^3
- VOLUME Overall values (Median) [4]: 91.5 mm^3
- SURFACE Overall values (Mean) [5]: 62.2 mm^2
- SURFACE Overall values (Median) [5]: 56 mm^2
- VOLUME Overall values (Mean) [5]: 233.5 mm^3
- VOLUME Overall values (Median) [5]: 196 mm^3
- SURFACE Overall values (Mean) [6]: 93.7 mm^2
- SURFACE Overall values (Median) [6]: 96 mm^2
- VOLUME Overall values (Mean) [6]: 408.05 mm^3
- VOLUME Overall values (Median) [6]: 384 mm^3
- SURFACE Overall values (Mean) [7]: 124.1 mm^2
- SURFACE Overall values (Median) [7]: 129 mm^2
- VOLUME Overall values (Mean) [7]: 642.55 mm^3
- VOLUME Overall values (Median) [7]: 646.5 mm^3
- SURFACE Overall values (Mean) [8]: 151.3 mm^2
- SURFACE Overall values (Median) [8]: 155 mm^2
- VOLUME Overall values (Mean) [8]: 848.95 mm^3
- VOLUME Overall values (Median) [8]: 775 mm^3
- Inhibition of the in vivo growth of intradermal KLN 205 cells, in words (intradermal inoculation): inhibit the in vivo growth
- Differences in intradermal KLN 205 tumour growth rate vs. placebo, statistical significance p (Mann-Whitney U test) (intradermal inoculation, surface or volume, days 17th, 20th and 31th): < 0.05

Structure (SMILES): Br.N[C@]1(C[n+]2ccccc2)C[C@H](C(=O)O)NC1=O.[Br-] (single isomer, unassigned; isomer 4) [isomer 4, 3S,5R-1-(3-Amino-5-carboxy-2-oxopyrrolidin-3-ylmethyl)pyridinium bromide hidrobromide]
- SURFACE Overall values (Mean) [9]: 0 mm^2
- SURFACE Overall values (Median) [9]: 0 mm^2
- VOLUME Overall values (Mean) [9]: 0 mm^3
- VOLUME Overall values (Median) [9]: 0 mm^3
- SURFACE Overall values (Mean) [10]: 11.4 mm^2
- SURFACE Overall values (Median) [10]: 12.5 mm^2
- VOLUME Overall values (Mean) [10]: 22 mm^3
- VOLUME Overall values (Median) [10]: 22.75 mm^3
- SURFACE Overall values (Mean) [11]: 27.4 mm^2
- SURFACE Overall values (Median) [11]: 30 mm^2
- VOLUME Overall values (Mean) [11]: 75.5 mm^3
- VOLUME Overall values (Median) [11]: 75 mm^3
- SURFACE Overall values (Mean) [12]: 49 mm^2
- SURFACE Overall values (Median) [12]: 45 mm^2
- VOLUME Overall values (Mean) [12]: 171.6 mm^3
- VOLUME Overall values (Median) [12]: 135 mm^3
- SURFACE Overall values (Mean) [13]: 74.4 mm^2
- SURFACE Overall values (Median) [13]: 70 mm^2
- VOLUME Overall values (Mean) [13]: 304.2 mm^3
- VOLUME Overall values (Median) [13]: 245 mm^3
- SURFACE Overall values (Mean) [14]: 117.4 mm^2
- SURFACE Overall values (Median) [14]: 118.5 mm^2
- VOLUME Overall values (Mean) [14]: 554.9 mm^3
- VOLUME Overall values (Median) [14]: 506.25 mm^3
- SURFACE Overall values (Mean) [15]: 149.3 mm^2
- SURFACE Overall values (Median) [15]: 159 mm^2
- VOLUME Overall values (Mean) [15]: 765.05 mm^3
- VOLUME Overall values (Median) [15]: 800 mm^3
- SURFACE Overall values (Mean) [16]: 179.2 mm^2
- SURFACE Overall values (Median) [16]: 186 mm^2
- VOLUME Overall values (Mean) [16]: 1020 mm^3
- VOLUME Overall values (Median) [16]: 1058.75 mm^3
- SURFACE Overall values (Mean) [17]: 0 mm^2
- SURFACE Overall values (Median) [17]: 0 mm^2
- SURFACE Overall values (Mean) [18]: 0.06 mm^2
- SURFACE Overall values (Median) [18]: 0.03 mm^2
- SURFACE Overall values (Mean) [19]: 0.18 mm^2
- SURFACE Overall values (Median) [19]: 0.17 mm^2
- SURFACE Overall values (Mean) [20]: 0.37 mm^2
- SURFACE Overall values (Median) [20]: 0.315 mm^2
- SURFACE Overall values (Mean) [21]: 0.89 mm^2
- SURFACE Overall values (Median) [21]: 0.93 mm^2
- SURFACE Overall values (Mean) [22]: 2.48 mm^2
- SURFACE Overall values (Median) [22]: 1.83 mm^2
- SURFACE Overall values (Mean) [23]: 6.7 mm^2
- SURFACE Overall values (Median) [23]: 6.94 mm^2
- SURFACE Overall values (Mean) [24]: 13.61 mm^2
- SURFACE Overall values (Median) [24]: 12.26 mm^2
- SURFACE Overall values (Mean) [25]: 29.17 mm^2
- SURFACE Overall values (Median) [25]: 24.34 mm^2
- SURFACE Overall values (Mean) [26]: 41.53 mm^2
- SURFACE Overall values (Median) [26]: 37.56 mm^2
- SURFACE Overall values (Mean) [1]: 0 mm^2
- SURFACE Overall values (Median) [1]: 0 mm^2
- VOLUME Overall values (Mean) [1]: 0 mm^3
- VOLUME Overall values (Median) [1]: 0 mm^3
- SURFACE Overall values (Mean) [2]: 14.3 mm^2
- SURFACE Overall values (Median) [2]: 12.5 mm^2
- VOLUME Overall values (Mean) [2]: 28.85 mm^3
- VOLUME Overall values (Median) [2]: 22.75 mm^3
- SURFACE Overall values (Mean) [3]: 27.9 mm^2
- SURFACE Overall values (Median) [3]: 25 mm^2
- VOLUME Overall values (Mean) [3]: 74.95 mm^3
- VOLUME Overall values (Median) [3]: 62.5 mm^3
- SURFACE Overall values (Mean) [4]: 46.3 mm^2
- SURFACE Overall values (Median) [4]: 42 mm^2
- VOLUME Overall values (Mean) [4]: 150.05 mm^3
- VOLUME Overall values (Median) [4]: 126 mm^3
- SURFACE Overall values (Mean) [5]: 71.2 mm^2
- SURFACE Overall values (Median) [5]: 63.5 mm^2
- VOLUME Overall values (Mean) [5]: 280.6 mm^3
- VOLUME Overall values (Median) [5]: 232.75 mm^3
- SURFACE Overall values (Mean) [6]: 107.8 mm^2
- SURFACE Overall values (Median) [6]: 95 mm^2
- VOLUME Overall values (Mean) [6]: 496.8 mm^3
- VOLUME Overall values (Median) [6]: 425.25 mm^3
- SURFACE Overall values (Mean) [7]: 141.7 mm^2
- SURFACE Overall values (Median) [7]: 128 mm^2
- VOLUME Overall values (Mean) [7]: 744.75 mm^3
- VOLUME Overall values (Median) [7]: 608.5 mm^3
- SURFACE Overall values (Mean) [8]: 177.1 mm^2
- SURFACE Overall values (Median) [8]: 162.5 mm^2
- VOLUME Overall values (Mean) [8]: 1029.35 mm^3
- VOLUME Overall values (Median) [8]: 885.75 mm^3
- Differences in intradermal KLN 205 tumour growth rate vs. placebo, in words (intradermal inoculation, Mann-Whitney U test): not differences
- Intradermal KLN 205 tumour growth vs. placebo, tendency in words (intradermal inoculation, surface or volume, all days scored after day 17th): significant tendency
- Differences in intramuscular KLN 205 tumour growth rate vs. placebo, in words (intramuscular inoculation, Mann-Whitney U test): not differences
- Inhibition of the in vivo growth of subcutaneous KLN 205 cells, in words (subcutaneous inoculation): inhibit the in vivo growth
- Differences in subcutaneous KLN 205 tumour growth rate vs. placebo, statistical significance p (Mann-Whitney U test) (subcutaneous inoculation, surface or volume, all days scored after the day 20th): < 0.05
